Measured values from article PMC9607578, “Chemopreventive Effect on Human Colon Adenocarcinoma Cells of Styrylquinolines: Synthesis, Cytotoxicity, Proapoptotic Effect and Molecular Docking Analysis” (Molecules, 2022).
Entries after “also recorded” stand apart in the source; their conditions may differ. Like-named read-outs stand apart in the source and are kept apart here.

Columns and labels:
[1] = test system: SW620 cells; assay: Apoptosis, APO-DIRECT kit (FITC-dUTP/PI), flow cytometry; type: cell-based, human; settings: treated at IC50
Protocol: To assess whether the chosen styrylquinolines generated apoptosis in malignant cells, the APO-DIRECT^TM kit (Chemicon^R International, Temecula, CA, USA) was used following the manufacturer’s instructions. Briefly, the malignant cells were seeded at a final density of 1.1 × 10^6 cells in a T75 culture flask and incubated for 24 h at 37 °C in a 5% CO2 atmosphere. […] After incubation time, cells were fixed and stained with FITC-dUTP and propidium iodide (PI), respectively, according to the manufacturer’s protocol. Analysis was conducted via flow cytometry (LSR Fortessa; BD Biosciences, San Jose, CA, USA) and FlowJo 7.6 software. All PI-FITC-positive cells were considered to be apoptotic cells.

[2] = test system: SW620 cells; assay: Antiproliferative activity, SRB staining, 0-8 days; type: cell-based, human; settings: for Concentration required to significantly decrease cell viability percentage from day 2 post-treatment: SW620, day 2; for Concentration from which cell viability percentage is decreased to 0% / high percentage of reduction: SW620, treatment up to 8 days
Protocol: (§1) The antiproliferative activity of styrylquinolines with higher selective cytotoxicity toward malignant cells was also tested with SRB staining. Briefly, cells were seeded to a final density of 2.5 × 10^3 cells/well in 96-well tissue culture plates and incubated under the same conditions described for cytotoxic activity. After 24 h, the cells were treated with increasing concentrations (5–80 µM) of the selected hybrids or with 1% DMSO (negative control) for 0, 2, 4, 6, and 8 days. Culture media were replaced every 48 h to guarantee the basic nutrients required for cell growth and viability, maintaining the concentrations of each of the selected hybrids. After each incubation time, cells were fixed and stained, and the absorbance was measured as described above.

[3] = test system: SW480 cells; assay: Antiproliferative activity, SRB staining, 0-8 days; type: cell-based, human; settings: for Concentration required to significantly decrease cell viability percentage from day 2 post-treatment: SW480, day 2; for Concentration from which cell viability percentage is decreased to 0% / high percentage of reduction: SW480, treatment up to 8 days
Protocol: as §1

[4] = test system: SW620 cells; assay: Immunological markers, ProcartaPlex 18-plex panel, MAGPIX; type: cell-based, human; settings: at IC50
Protocol: (§2) To assess whether styrylquinolines had any effect on the expression of immunological markers associated with the inflammatory process, malignant cells were seeded at a final density of 2.5 × 10^5 cells/well in 6-well tissue culture plates, and cell adherence was allowed. […] After the incubation time, the supernatant was collected, and the levels of the following analytes were measured using the ProcartaPlex Human Th1/Th2/Th9/Th17/Th22/Treg 18-plex panel (Invitrogen) according to the manufacturer’s protocol: GM-CSF, IFN-γ, TNF-α, IL-10, IL-12p70, IL-13, IL-17A, IL-18, IL-1β, IL-2, IL-21, IL-22, IL-23, IL-27, IL-4, IL-5, IL-6, and IL-9. Furthermore, to evaluate the participation of these hybrids in the production of some markers associated with the apoptosis process (Bcl-2, active Caspase-3 and cleaved PARP) in colorectal cancer cells, the human apoptosis panel (Invitrogen, Waltham, Massachusetts, United States) was used following the manufacturer’s instructions. To normalize the concentration of each marker, total proteins were quantified using the PierceTM BCA kit (Thermo Fisher Scientific, Waltham, MA, USA).
(§3) In both cases, the reading was performed in the MAGPIX marker multiplex analyzer (Luminex XMAP, Austin, TX, USA). The concentration of each molecule was extrapolated from the calibration curve (individual for each marker) obtained from the standards provided by the kit.

[5] = test system: SW480 cells; assay: as above; type: cell-based, human; settings: at IC50
Protocol: as §2, §3

[6] = test system: SW620 cells; assay: Cytotoxic activity, sulforhodamine B (SRB) staining; type: cell-based, human; settings: for IC50: Homo sapiens, SW-620, mean ± SE, read-out: SW620 IC50
Protocol: (§4) For the biological assays, the human colon adenocarcinoma cell line SW480 and its metastatic derivative SW620 were used. Additionally, the nonmalignant cell line HaCaT was used to find the selectivity index of the compounds. All cell lines were obtained by the Colombian Plant Chemistry Group of the Faculty of Exact and Natural Sciences of the University of Antioquia (Medellín, Colombia) from the European Collection of Authenticated Cell Cultures (ECACC, Salisbury, UK). Cells were cultured in a DMEM medium with 4500 mg/L of glucose and L-glutamine (Sigma-Aldrich, Burlington, MA, USA), supplemented with 10% heat-inactivated (56 °C) horse serum (Gibco, Waltham, MA, USA), 1% penicillin/streptomycin (Sigma-Aldrich, Burlington, MA, USA), and 1% non-essential amino acids (Sigma-Aldrich, Burlington, MA, USA). For all experiments, horse serum was reduced to 3%, and the medium was supplemented with […] of transferrin, 5 ng/mL of selenium, and […] of insulin (ITS; Sigma-Aldrich, Burlington, MA, USA). All cell lines were incubated at 37 °C in a 5% CO2 atmosphere. Additionally, cell cultures were constantly monitored with PCR (Sigma-Aldrich, Burlington, MA, USA) for Mycoplasma spp. to control contamination with this agent.
(§5) To evaluate the effect of styrylquinolines on the viability of the SW480, SW620, and HaCaT cell lines, sulforhodamine B (SRB) staining was used. SRB is a colorimetric assay that indirectly estimates the number of living cells based on the ability of SRB to bind to protein components of adherent cells. Briefly, the malignant cell lines were seeded at a final density of 2.0 × 10^4 cells/well, and the nonmalignant cell line was seeded at a final density of 1.5 × 10^4 cells/well in 96-well tissue culture plates. All cell lines were incubated at 37 °C in a 5% CO2 atmosphere for 24 h to enable cell adherence, and they were then treated for 24 and 48 h with increasing concentrations (0.01–160 µM) of the styrylquinolines or their respective precursors (8-hydroxyquinoline and resveratrol), as well as 1% DMSO (negative control) and 5-FU (standard drug). After treatment, cells were fixed with trichloroacetic acid (50% v/v; PanReac AppliChem, Barcelona, Spain) for a period of one hour at 4 °C. After this, the cells were incubated for 30 min at room temperature with 0.4% (w/v) SRB (Sigma-Aldrich, Burlington, MA, USA). To remove unbound SRB, the cells were washed with 1% acetic acid, and the plates were allowed to dry at room temperature. Protein-bound SRB was solubilized with 10 mM Tris-base (Amresco, Cleveland, OH, USA) for 30 min at room temperature under constant agitation, and absorbance was measured at 490 nm in a microplate reader (Bio-Rad iMark^TM, Hercules, CA, USA). Finally, the concentration of the compound that inhibits 50% of cell growth (IC50) and the selectivity index (SI) were determined.

[7] = test system: SW480 cells; assay: as above; type: cell-based, human; settings: for IC50: Homo sapiens, SW480, mean ± SE, read-out: SW480 IC50
Protocol: as §4, §5

[8] = test system: HaCaT cells; assay: as above; type: cell-based; settings: Homo sapiens, mean ± SE, read-out: HaCaT IC50
Protocol: as §4, §5

[9] = test system: SW620 cells; assay: Apoptosis markers (Bcl-2, active caspase 3, cleaved PARP), human apoptosis panel, MAGPIX; type: cell-based; settings: vs negative control
Protocol: as §2, §3

[10] = test system: SW620 cells; assay: Intracellular ROS production, 2',7'-DCFDA probe; type: cell-based, human; settings: SW620, 24 h, treated at IC50, mean ± SE
Protocol: (§6) In order to evaluate the effect of the chosen styrylquinolines on the production of ROS in malignant cells, the 2′,7′-dichlorofluorescein diacetate (2′,7′-DCFDA) probe (Calbiochem, San Diego, CA, USA) was used as described by Kim et al.. Briefly, malignant cells were seeded at a final density of 2.5 × 10^5 cells/well in 6-well tissue culture plates for 24 h at 37 °C in a 5% CO2 atmosphere. […] After treatment, 2′,7′-DCFDA was added to a final concentration of 10 µM and incubated at 37 °C for 30 min. Finally, representative images of each well were taken using a fluorescence microscope (Axio Vert. A1; ZEISS, Jena, Germany) and Zen blue 3.4 software. The cell lysate was obtained from each well, and relative fluorescence units (RFU) were measured at excitation/emission wavelength (Ex/Em) = 485/525 nm using the Varioskan Lux microplate reader (Thermo Fisher Scientific, Waltham, MA, USA). The total protein concentration was quantified with the BCA method using the Pierce^TM BCA kit (Thermo Fisher Scientific, Waltham, MA, USA) to normalize the UFR.

[11] = test system: SW480 cells; assay: Intracellular ROS production, 2',7'-DCFDA probe; type: cell-based, human; settings: SW480, 48 h, treated at IC50, mean ± SE
Protocol: as §6

Compound	Concentration required to significantly decrease cell viability percentage from day 2 post-treatment [2] [µM]	Concentration from which cell viability percentage is decreased to 0% / high percentage of reduction [2] [µM]	Concentration required to significantly decrease cell viability percentage from day 2 post-treatment [3] [µM]	Concentration from which cell viability percentage is decreased to 0% / high percentage of reduction [3] [µM]	SI (IC50 HaCaT / IC50 SW620) ([6]; 24 h treatment)	SI (IC50 HaCaT / IC50 SW620) ([6]; 48 h treatment)	IC50 ([6]; 24 h treatment) [µM]	IC50 ([6]; 48 h treatment) [µM]	SI (IC50 HaCaT / IC50 SW480) ([7]; 24 h treatment)	SI (IC50 HaCaT / IC50 SW480) ([7]; 48 h treatment)	IC50 ([7]; 24 h treatment) [µM]	IC50 ([7]; 48 h treatment) [µM]	IC50 ([8]; 24 h treatment) [µM]	IC50 ([8]; 48 h treatment) [µM]	further results
Oc1ccc(/C=C/c2ccc3cccc(O)c3n2)cc1 [Compound 3a]	5	10	20	10	3.8	2.9	60.5 ± 2.9	16.6 ± 2.2	3.4	1.8	67.7 ± 2.8	26.5 ± 4	232 ± 29.2	47.9 ± 3.3	Apoptotic cells (cell death by apoptosis) ([1]; SW620, 24 h): 6.8%; Apoptotic cells (cell death by apoptosis) ([1]; SW620, 48 h): 21.5%; Levels of immunological markers ([4]; SW620, 24 h post-treatment): significant increase in the levels of GM-CSF, IL-13, IL-18, IL-4, TNF alpha, IL-22, and IL-9; Levels of immunological markers ([4]; SW620, 48 h post-treatment): levels of IL-4 and IL-10 were significantly increased; Levels of immunological markers ([5]; SW480, 24 h post-treatment): significant increases in the levels of GM-CSF, IFN gamma, IL-12p70, IL-4, IL-6, IL-10, and IL-17A; Levels of immunological markers ([5]; SW480, 48 h post-treatment): significant increases in GM-CSF, IFN gamma, IL-4, IL-6, IL-10 and IL-17A levels; also recorded: significant increases in the levels of IL-1 beta, IL-13, IL-18, IL-2, TNF alpha, IL-22, IL-27, and IL-9; Levels of Bcl-2 and cleaved PARP ([9]; SW620, 24 and 48 h): did not show significant differences; Levels of active caspase 3 ([9]; SW620, 24 and 48 h post-treatment): significantly increased
Oc1ccc(/C=C/c2ccc3cccc(O)c3n2)cc1O [Compound 3d]	20	40	40	40	3.0	12.3	54.6 ± 7.5	6.4 ± 1.1	1.0	1.9	160 ± 16.6	42.5 ± 5.2	164 ± 14.1	78.9 ± 2.3	ROS levels [10]: 1.8 ± 0.1 RFU; ROS levels [11]: 3.3 ± 0.2 RFU
